Experimental data taken from patent publication US5332733A, “Heterocyclically substituted piperazinoakylbenzoxazine and piperazinoalkylbenzothiazine compounds, processes for preparing them, and medicaments containing them” (Kali-Chemie Pharma GmbH, priority 1990, dated 1994).

Target: T1, cyclooxygenase (Mus musculus, UniProt P22437)
T1 construct: A cell suspension containing peritoneal cells from male mice 8-10 weeks old was obtained in a known manner; endogenous in cells; host or cells: mouse peritoneal macrophages (primary, adherent)
T1 sequence (P22437 27-602): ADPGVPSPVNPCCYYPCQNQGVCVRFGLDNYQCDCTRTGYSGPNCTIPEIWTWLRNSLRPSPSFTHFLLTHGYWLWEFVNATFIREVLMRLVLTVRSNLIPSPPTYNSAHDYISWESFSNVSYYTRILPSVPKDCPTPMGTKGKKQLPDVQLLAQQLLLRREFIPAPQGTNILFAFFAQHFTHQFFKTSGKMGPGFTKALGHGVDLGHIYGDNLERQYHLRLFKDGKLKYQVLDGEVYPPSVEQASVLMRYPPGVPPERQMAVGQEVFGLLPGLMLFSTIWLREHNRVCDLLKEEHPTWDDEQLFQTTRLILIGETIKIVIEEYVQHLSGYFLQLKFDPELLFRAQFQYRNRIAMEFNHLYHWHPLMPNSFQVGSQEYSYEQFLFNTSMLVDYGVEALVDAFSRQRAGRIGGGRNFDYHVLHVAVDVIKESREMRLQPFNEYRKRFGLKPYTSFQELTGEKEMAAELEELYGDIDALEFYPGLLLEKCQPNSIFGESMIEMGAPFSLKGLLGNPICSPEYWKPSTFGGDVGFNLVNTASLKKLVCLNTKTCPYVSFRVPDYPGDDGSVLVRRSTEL
Assay: In vitro cyclooxygenase inhibition, release of 6-keto-PGF1α from zymosan-stimulated peritoneal macrophages
Assay type: cell-based
Settings: zymosan-stimulated mouse peritoneal macrophage cells, 10^-5 mole/l
Description: 5. In Vitro Determination of Cyclooxygenase Inhibition And 5-lipoxygenase Inhibition.
After a cell is activated, arachidonic acid contained in cell membranes is metabolized in two ways. Leucotrienes, inter alia leucotriene C4, are formed due to the action of the enzyme 5-lipoxygenase (=5-LO), and prostanoids are formed due to the action of the enzyme cyclooxygenase (=CO). In in vitro systems these metabolites are secreted from the cell.
To evaluate the cyclooxygenase-inhibiting and 5-lipoxygenase-inhibiting properties of the test substances, their inhibitory activity on the biosynthesis of the arachidonic acid derivatives leucotriene C4 (=LTC4) and 6-keto-prostaglandin F1α (=6-keto-PGF1α) was determined in vitro on mouse peritoneal macrophage cells. For this purpose the LTC4 and 6-keto-PGF1α contents of a mouse peritoneal macrophage cell culture medium were determined by zymosan stimulation as described by Scott et al. (J. Exp. Med. 152 (1980), 324-335) and by Fradin et al., (Prostaglandins, 33 (1987), 579-589).
A cell suspension containing peritoneal cells from male mice 8-10 weeks old was obtained in a known manner. A solution marketed under the designation RPMI 1640 (Manufactured by Gibco) was used as the cell culture medium, to which heparin (10 international units/ml) and antibiotics were added according to the procedure of Bonney et al. (Biochem. J. 176 (1978) 422-433). The cell suspension was adjusted to a cell concentration of 10^6 cells per ml and distributed uniformly on titer dishes containing 24 1-ml titer cells (wells). These were kept for two hours in a humidified incubator filled with air enriched with 7% CO2. Cells not adhering to the titer well walls were then removed by washing. The remaining macrophage cells adhering to the walls were incubated for about 12 hours in a suspension medium to which 0.1% of bovine serum albumin (BSA=Bovine Serum Albumin) was added. The suspension medium was then replaced by a Hanks salt solution (=Hanks Balanced Salt Solution=HBSS) with 10 mmoles of HEPES (=hydroxyethylpiperazinoethanesulfonic acid) to which a 0.1% strength solution of the test substances in aqueous, 1% strength dimethylformamide or only the solvent had been added. After 15 minutes the arachidonic acid metabolism was stimulated by adding […] of zymosan (=glycoprotein mixture isolated from cell walls of beer yeast, Saccharomyces cerevisiae, Manufactured by Sigma Chemical Co., Munich) per titre cell. After 2 hours samples of the respective supernatant liquid in each cell were examined for their 6-keto-PGF1α and LTC4 contents by an enzyme immunoassay (=EIA). This EIA is carried out following the method of Pradelles et al. (Analytical Chem. 57 (1985), 1170-1173). The determination of LTC4 and the determination of 6-keto-PGF1α were each carried out on suitable dilutions of the samples (1:50 to 1:250 for the LTC4 determination and 1:250 to 1:1,250 for the 6-keto-PGF1α determination) in comparison with a comparative scale. To determine the inhibiting effect of a 10^-5 molar concentration of the compounds, the amounts of reference eicosanoid were determined, and the inhibiting effect was calculated therefrom in % inhibition compared to the measurements of the zymosan controls.

Compound	% inhibition upon release of 6-keto-PGF1α [%]
Cc1ccnc(N2CCN(CCCCC3Sc4ccccc4NC3=O)CC2)c1 (centres unmarked) [Example 1, 2-{4-[4-(4-methylpyridin-2-yl)-piperazin-1-yl]butyl}-2H-1,4-benzothiazine-3(4H)-one]	27
Cc1ccnc(N2CCN(CCCCC3Oc4ccccc4NC3=O)CC2)c1 (centres unmarked) [Example 7]	17
Cc1ccnc(N2CCN(CCCC3Oc4ccccc4NC3=O)CC2)c1 (centres unmarked) [Example 9]	32
Cc1ccnc(N2CCN(CCCC3Sc4ccccc4NC3=S)CC2)c1 (centres unmarked) [Example 11]	0
O=C1Nc2ccccc2SC1CCCN1CCN(c2ccc(Cl)cn2)CC1 (centres unmarked) [Example 15]	46
